Data as given in patent US9505745B2, “Enhancer of zeste homolog 2 inhibitors” (GlaxoSmithKline Intellectual Property (No.2) Limited, priority 2013, dated 2016).
Structures can show the parent of a compound that is named as a salt.

Assays:
[1] = target: T1, EZH2 within the PRC2 complex (Homo sapiens (Human), UniProt Q15910); assay: EZH2 methyltransferase SPA, biotinylated histone H3K27 peptide substrate (Assay Protocol 2); type: biochemical; settings: 3H-SAM, ≦10 nM approaches limit of detection
How it was run: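 Scintillation proximity read-out of 3H-methyl transfer onto biotinylated unmethylated H3K27 peptide (10 uM) captured on streptavidin beads; SAM 0.15 uM tritiated plus 2.85 uM cold.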

[2] = target: T1, EZH2 within the PRC2 complex; assay: EZH2 methyltransferase SPA, mononucleosome substrate (Assay Protocol 1); type: biochemical; settings: HeLa mononucleosome substrate, 3H-SAM, ≦10 nM approaches limit of detection
Experimental: Compounds contained herein were evaluated for their ability to inhibit the methyltransferase activity of EZH2 within the PRC2 complex. Human PRC2 complex was prepared by co-expressing each of the 5 member proteins (FLAG-EZH2, EED, SUZ12, RbAp48, AEBP2) in Sf9 cells followed by co-purification. Enzyme activity was measured in a scintillation proximity assay (SPA) where a tritiated methyl group is transferred from 3H-SAM to a lysine residue on Histone H3 of a mononucleosome, purified from HeLa cells. Mononucleosomes were captured on SPA beads and the resulting signal is read on a ViewLux plate reader.
Part A. Compound Preparation
• 1. Prepare 10 mM stock of compounds from solid in 100% DMSO. • 2. Set up an 11-point serial dilution (1:3 dilution, top concentration 10 mM) in 100% DMSO for each test compound in a 384 well plate leaving columns 6 and 18 for DMSO controls. • 3. Dispense 100 nL of compound from the dilution plate into reaction plates (Grenier Bio-One, 384-well, Cat#784075). Part B. Reagent Preparation Prepare the following solutions: • 1. 50 mM Tris-HCl, pH 8: Per 1 L of base buffer, combine 1 M Tris-HCl, pH 8 (50 mL) and distilled water (950 mL). • 2. 1× Assay Buffer: Per 10 mL of 1× Assay Buffer, combine 50 mM Tris-HCl, pH 8 (9958 uL), 1 M MgCl2 (20 uL), 2 M DTT (20 uL), and 10% Tween-20 (2 uL) to provide a final concentration of 50 mM Tris-HCl, pH 8, 2 mM MgCl2, 4 mM DTT, 0.002% Tween-20. • 3. 2× Enzyme Solution: Per 10 mL of 2× Enzyme Solution, combine 1× Assay Buffer and PRC2 complex to provide a final enzyme concentration of 10 nM. • 4. SPA Bead Suspension: Per 1 mL of SPA Bead Suspension, combine PS-PEI coated LEADSeeker beads (40 mg) and H2O (1 mL) to provide a final concentration of 40 mg/mL. • 5. 2× Substrate Solution: Per 10 mL of 2× Substrate Solution, combine 1× Assay Buffer (9728.55 uL), 800 ug/mL mononucleosomes (125 uL), 1 mM cold SAM (4 uL), and 7.02 uM 3H-SAM (142.45 uL; 0.55 mCi/mL) to provide a final concentration of 5 ug/mL nucleosomes, 0.2 uM cold SAM, and 0.05 uM 3H-SAM. • 6. 2.67× Quench/Bead Mixture: Per 10 mL of 2.67× Quench/Bead Mixture, combine ddH2O (9358 uL), 10 mM cold SAM (267 uL), 40 mg/mL Bead Suspension (375 uL) to provide a final concentration of 100 uM cold SAM and 0.5 mg/mL SPA beads. Part C. Assay Reaction in 384-well Grenier Bio-One Plates Compound Addition • 1. Dispense 100 nL/well of 100× Compound to test wells (as noted above). • 2. Dispense 100 nL/well of 100% DMSO to columns 6 & 18 for high and low controls, respectively. Assay • 1. Dispense 5 uL/well of 1× Assay Buffer to column 18 (low control reactions). • 2. Dispense 5 uL/well of 2× Enzyme Solution to columns 1-17, 19-24. • 3. Spin assay plates for ˜1 min at 500 rpm. • 4. Stack the assay plates, covering the top plate. • 5. Incubate the compound/DMSO with the enzyme for 30 min at room temperature. • 6. Dispense 5 uL/well of 2× Substrate Solution to columns 1-24. • 7. Spin assay plates for ˜1 min at 500 rpm. • 8. Stack the assay plates, covering the top plate. • 9. Incubate the assay plates at room temperature for 1 hour. Quench/Bead Addition • 1. Dispense 5 uL/well of the 3× Quench/Bead Mixture to columns 1-24. • 2. Seal the top of each assay plate with adhesive TopSeal. • 3. Spin assay plates for ˜1 min at 500 rpm. • 4. Equilibrate the plates for >20 min. Read plates • 1. Read the assay plates on the Viewlux Plate Reader utilizing the 613 nm emission filter with a 300 s read time.
Reagent addition can be done manually or with automated liquid handler. • The final DMSO concentration in this assay is 1%. • The positive control is in column 6; negative control is in column 18. • Final starting concentration of compounds is 100 µM. Results
Percent inhibition was calculated relative to the DMSO control for each compound concentration and the resulting values were fit using standard IC50 fitting parameters within the ABASE data fitting software package.

T1 sequence (Q15910 whole entry): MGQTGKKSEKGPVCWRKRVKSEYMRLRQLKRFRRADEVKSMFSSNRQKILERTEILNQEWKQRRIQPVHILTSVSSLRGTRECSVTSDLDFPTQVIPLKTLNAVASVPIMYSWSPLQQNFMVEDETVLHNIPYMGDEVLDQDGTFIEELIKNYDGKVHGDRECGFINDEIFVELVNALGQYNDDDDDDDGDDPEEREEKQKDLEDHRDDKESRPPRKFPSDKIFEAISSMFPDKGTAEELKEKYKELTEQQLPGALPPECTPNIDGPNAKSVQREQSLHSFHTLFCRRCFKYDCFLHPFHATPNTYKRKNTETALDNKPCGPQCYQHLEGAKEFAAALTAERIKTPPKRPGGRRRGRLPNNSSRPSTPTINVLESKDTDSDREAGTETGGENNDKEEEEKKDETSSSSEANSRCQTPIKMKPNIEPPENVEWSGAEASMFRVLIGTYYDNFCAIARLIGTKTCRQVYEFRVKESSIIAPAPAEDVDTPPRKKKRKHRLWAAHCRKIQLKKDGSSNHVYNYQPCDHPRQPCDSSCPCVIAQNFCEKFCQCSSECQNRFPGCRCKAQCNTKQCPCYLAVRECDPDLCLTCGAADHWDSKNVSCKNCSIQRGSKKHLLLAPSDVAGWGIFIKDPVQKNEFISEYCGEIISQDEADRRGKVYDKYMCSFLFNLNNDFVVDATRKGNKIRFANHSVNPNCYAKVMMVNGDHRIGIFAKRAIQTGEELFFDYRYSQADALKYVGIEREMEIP
T1 sequence (O75530 whole entry partner): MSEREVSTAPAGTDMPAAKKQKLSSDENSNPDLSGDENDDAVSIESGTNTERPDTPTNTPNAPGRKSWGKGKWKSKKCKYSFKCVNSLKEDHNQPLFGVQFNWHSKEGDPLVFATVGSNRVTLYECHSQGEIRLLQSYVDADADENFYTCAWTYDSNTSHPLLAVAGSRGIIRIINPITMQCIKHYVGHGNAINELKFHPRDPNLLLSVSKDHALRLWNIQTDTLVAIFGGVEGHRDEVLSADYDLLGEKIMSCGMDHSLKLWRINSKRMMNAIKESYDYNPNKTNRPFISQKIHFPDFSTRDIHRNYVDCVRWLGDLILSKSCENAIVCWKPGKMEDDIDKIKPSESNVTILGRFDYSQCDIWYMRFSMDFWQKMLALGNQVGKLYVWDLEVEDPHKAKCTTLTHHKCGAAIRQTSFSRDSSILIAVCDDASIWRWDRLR
T1 sequence (Q15022 whole entry partner): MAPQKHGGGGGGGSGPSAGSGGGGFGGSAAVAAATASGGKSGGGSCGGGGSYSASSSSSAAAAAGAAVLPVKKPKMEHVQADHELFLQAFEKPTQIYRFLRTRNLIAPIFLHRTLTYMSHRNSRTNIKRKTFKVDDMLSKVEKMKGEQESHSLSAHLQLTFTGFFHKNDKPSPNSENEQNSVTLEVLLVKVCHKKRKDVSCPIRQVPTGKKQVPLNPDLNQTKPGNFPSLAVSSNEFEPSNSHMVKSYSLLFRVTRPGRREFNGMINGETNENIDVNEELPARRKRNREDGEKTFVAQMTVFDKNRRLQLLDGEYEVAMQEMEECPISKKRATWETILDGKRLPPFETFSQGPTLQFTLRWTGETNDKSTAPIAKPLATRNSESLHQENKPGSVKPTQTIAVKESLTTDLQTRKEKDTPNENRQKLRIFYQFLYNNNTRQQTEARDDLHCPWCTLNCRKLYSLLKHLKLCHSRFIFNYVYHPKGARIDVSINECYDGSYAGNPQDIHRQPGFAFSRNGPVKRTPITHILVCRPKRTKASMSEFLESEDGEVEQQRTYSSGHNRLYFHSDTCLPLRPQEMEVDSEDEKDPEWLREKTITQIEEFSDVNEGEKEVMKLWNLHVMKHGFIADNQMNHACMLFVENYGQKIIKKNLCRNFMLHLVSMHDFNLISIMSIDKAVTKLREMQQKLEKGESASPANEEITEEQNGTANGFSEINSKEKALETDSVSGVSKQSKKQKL
T1 sequence (Q09028 whole entry partner): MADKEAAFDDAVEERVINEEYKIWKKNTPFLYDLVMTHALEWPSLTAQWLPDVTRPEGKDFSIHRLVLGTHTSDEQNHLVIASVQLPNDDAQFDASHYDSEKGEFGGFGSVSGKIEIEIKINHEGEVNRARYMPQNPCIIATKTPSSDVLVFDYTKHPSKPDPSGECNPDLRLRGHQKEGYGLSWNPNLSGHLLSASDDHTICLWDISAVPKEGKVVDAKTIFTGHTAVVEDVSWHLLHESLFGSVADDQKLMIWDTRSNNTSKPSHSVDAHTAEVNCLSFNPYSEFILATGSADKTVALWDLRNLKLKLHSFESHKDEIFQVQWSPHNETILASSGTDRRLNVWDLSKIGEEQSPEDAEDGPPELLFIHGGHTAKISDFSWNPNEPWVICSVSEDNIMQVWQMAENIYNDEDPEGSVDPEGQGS
T1 sequence (Q6ZN18 whole entry partner): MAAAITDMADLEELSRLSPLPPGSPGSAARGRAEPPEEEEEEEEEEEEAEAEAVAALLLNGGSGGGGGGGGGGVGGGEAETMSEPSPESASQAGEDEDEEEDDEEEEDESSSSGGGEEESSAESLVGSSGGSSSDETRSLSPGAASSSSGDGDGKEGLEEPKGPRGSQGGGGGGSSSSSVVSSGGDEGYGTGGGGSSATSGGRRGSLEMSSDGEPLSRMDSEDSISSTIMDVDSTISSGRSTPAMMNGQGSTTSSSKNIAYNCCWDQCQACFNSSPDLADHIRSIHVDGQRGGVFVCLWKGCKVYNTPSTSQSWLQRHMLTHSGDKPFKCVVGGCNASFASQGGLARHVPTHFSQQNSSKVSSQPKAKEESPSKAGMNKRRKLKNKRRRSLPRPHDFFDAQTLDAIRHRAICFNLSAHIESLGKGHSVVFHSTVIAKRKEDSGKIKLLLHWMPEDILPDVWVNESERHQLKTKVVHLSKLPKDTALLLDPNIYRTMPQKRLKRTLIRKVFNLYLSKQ

Structure (SMILES) | IC50 [1] | IC50 [2]
Cc1cc(C)c(CNC(=O)c2csc(N3CCCC3C)c2C)c(=O)[nH]1 (stereo not shown) [Example 25, N-((4,6-Dimethyl-2-oxo-1,2-dihydropyridin-3-yl)methyl)-4-methyl-5-(2-methylpyrrolidin-1-yl)thiophene-3-carboxamide] | 630 nM | 100 nM
Cc1cc(C)c(CNC(=O)c2csc(C(C)N3CCC(N(C)C)CC3)c2C)c(=O)[nH]1 (stereo not shown) [Example 27, N-((4,6-dimethyl-2-oxo-1,2-dihydropyridin-3-yl)methyl)-5-(1-(4-(dimethylamino)piperidin-1-yl)ethyl)-4-methylthiophene-3-carboxamide hydrochloride] | 63 nM | 31 nM
CCC(c1scc(C(=O)NCc2c(C)cc(C)[nH]c2=O)c1C)N1CCOCC1 (stereo not shown) [Example 29, N-((4,6-dimethyl-2-oxo-1,2-dihydropyridin-3-yl)methyl)-4-methyl-5-(1-morpholinopropyl)thiophene-3-carboxamide] | 3160 nM | 398 nM
CCN(c1scc(C(=O)NCc2c(C)cc(C)n(C)c2=O)c1C)[C@H]1CC[C@H](N(C)C)CC1 [Example 32, 5-(((trans)-4-(Dimethylamino)cyclohexyl)(ethyl)amino)-4-methyl-N-((1,4,6-trimethyl-2-oxo-1,2-dihydropyridin-3-yl)methyl)thiophene-3-carboxamide] | 50 nM | ≤ 10 nM

Now from value to molecule:

IC50 [1] | IC50 [2] | Structure (SMILES)
5010 nM | 630 nM | Cc1cc(C)c(CNC(=O)c2csc(C(C)N3CCOCC3)c2C)c(=O)[nH]1 (stereo not shown) [Example 26, N-((4,6-dimethyl-2-oxo-1,2-dihydropyridin-3-yl)methyl)-4-methyl-5-(1-morpholinoethyl)thiophene-3-carboxamide]
63 nM | 19 nM | CCC(c1scc(C(=O)NCc2c(C)cc(C)[nH]c2=O)c1C)N1CCC(N(C)C)CC1 (stereo not shown) [Example 28, N-((4,6-dimethyl-2-oxo-1,2-dihydropyridin-3-yl)methyl)-5-(1-(4-(dimethylamino)piperidin-1-yl)propyl)-4-methylthiophene-3-carboxamide]
≥ 100000 nM | 39800 nM | CCN(c1ccc(C(=O)NCc2c(C)cc(C)[nH]c2=O)s1)C1CCOCC1 [Example 30, N-((4,6-Dimethyl-2-oxo-1,2-dihydropyridin-3-yl)methyl)-5-(ethyl(tetrahydro-2H-pyran-4-yl)amino)thiophene-2-carboxamide]
794 nM | 100 nM | CCN(c1scc(C(=O)NCc2c(C)cc(C)n(C)c2=O)c1C)C1CCOCC1 [Example 31, 5-(Ethyl(tetrahydro-2H-pyran-4-yl)amino)-4-methyl-N-((1,4,6-trimethyl-2-oxo-1,2-dihydropyridin-3-yl)methyl)thiophene-3-carboxamide]
